PubChem BioAssay AID467 (The Scripps Research Institute Molecular Screening Center, 2006)
Activity calls are given as the source filed them. How the calls were made is not given here.

Test system: parental cell line counter screen, S1P1 agonist assay readout
Experiment: signal in parental cells, counter-screen for S1P1 agonist project (AID 467);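 further: agonist potency measured against forskolin stimulation plus an EC20 level of SEW2871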

SMILES: CC1CCCC(C)N1C(=O)CN1CCN(c2nc(-c3ccc(F)cc3)cs2)CC1 (stereo not drawn)
- EC50: 21.7 µM (inactive)

SMILES: CCC(C)OC(=O)c1[nH]c2c(c1C)C(=O)CC(c1ccc(N(C)C)cc1)C2 (stereo not drawn)
- EC50: > 30 µM (inactive)

SMILES: COc1ccc(N2C(=O)CC(Sc3ncn[nH]3)C2=O)c(OC)c1 (stereo not drawn)
- EC50: 4.91 µM

SMILES: CCC(=O)Nc1ccc2c(c1)C(=O)N(C1CCCCC1)C2=O
- EC50: > 95.1 µM (inactive)

SMILES: CCOC(=O)C1C(=O)C=C(c2ccc(OC)cc2)CC1c1ccco1 (stereo not drawn)
- EC50: > 30 µM (inactive)

SMILES: COc1ccc(S(=O)(=O)N2CCN(c3ccc(C)cc3C)CC2)cc1OC
- EC50: 28.4 µM (inactive)

SMILES: c1ccc(N2CCN(c3ncnc4c3oc3ccccc34)CC2)cc1
- EC50: > 95.1 µM (inactive)

SMILES: Cc1ccc(OCCn2cc(/C(N)=N/O)c3ccccc32)cc1C
- EC50: 17 µM (inactive)

SMILES: Fc1ccccc1COc1ccc(/C=N/n2cnnc2)cc1
- EC50: > 95.1 µM (inactive)

SMILES: Cc1cc(C(=O)N2CCN(C(c3ccccc3)c3ccccc3)CC2)on1
- EC50: > 95.1 µM (inactive)

SMILES: Cn1nc(C(C)(C)C)cc1C(=O)NCc1ccc(N2CCCC2=O)cc1
- EC50: > 30 µM (inactive)

SMILES: CCCC(=O)Nc1ccc(-c2nc3cc(C)ccc3o2)cc1
- EC50: > 95.1 µM (inactive)

SMILES: CCOC(=O)/C=C/S(=O)(=O)c1ccc(NC(C)=O)cc1
- EC50: 3.96 µM

SMILES: OC1(c2cccc(C(F)(F)F)c2)CCN(c2ncnc3c2[nH]c2ccc(F)cc23)CC1
- EC50: > 3 µM (inactive)

SMILES: Clc1ccc(OCc2nnc(SCc3nc4ccccc4[nH]3)n2Cc2ccco2)cc1
- EC50: 36.4 µM (inactive)

SMILES: Cc1ccc(-c2csc3ncnc(Sc4nnc(CN5CCCCCC5=O)o4)c23)cc1
- EC50: 2.73 µM

SMILES: CCc1ccc(S(=O)(=O)NCCc2csc(-c3ccccc3)n2)s1
- EC50: 33.4 µM (inactive)

SMILES: O=S1(=O)C=C(Sc2nnc(-c3ccccc3)o2)c2ccccc21
- EC50: 3.16 µM

SMILES: Cc1ccccc1-n1c(SCC(=O)c2cc(C)n(C)c2C)nnc1-c1ccncc1
- EC50: > 95.1 µM (inactive)

SMILES: Cc1cc(C(=O)CSc2nnc(-c3cccnc3)n2-c2ccccc2F)c(C)n1C
- EC50: > 95.1 µM (inactive)

SMILES: CCCC(=O)Nc1ccc2oc(-c3ccc(OC)c(Br)c3)nc2c1
- EC50: > 95.1 µM (inactive)

SMILES: O=C(C1CCCN1S(=O)(=O)c1cccc2cccnc12)N1CCN(c2ccccc2)CC1 (stereo not drawn)
- EC50: > 95.1 µM (inactive)

SMILES: COC(=O)c1sc(NC(=O)c2ccc(OC)cc2OC)nc1C
- EC50: > 95.1 µM (inactive)

SMILES: Clc1ccc(NCn2cncn2)nc1
- EC50: > 95.1 µM (inactive)

SMILES: CCc1ccc2oc(-c3cc(N)cc(C)c3O)nc2c1
- EC50: > 95.1 µM (inactive)

SMILES: c1ccc(C(Cc2nc(-c3cccnc3)no2)c2ccccc2)cc1
- EC50: > 95.1 µM (inactive)

SMILES: Cc1ccc(-n2c(C)cc(C(=O)CSc3nnnn3C)c2C)cc1
- EC50: > 95.1 µM (inactive)

SMILES: CCCCOc1ncnc2c1[nH]c1ccc(F)cc12
- EC50: > 95.1 µM (inactive)

SMILES: O=C(c1cc(-c2ccc(O)cc2)on1)N1CCc2ccccc2C1
- EC50: > 30 µM (inactive)

SMILES: Cc1ccc(-n2ncc3c(N4CCCC(C)C4)ncnc32)c(C)c1 (stereo not drawn)
- EC50: 36.1 µM (inactive)

SMILES: Cc1ccc(O)c(NC(=O)CCC2CCCCC2)c1
- EC50: 50.1 µM (inactive)

SMILES: CCOC(=O)c1ccc(NC(=O)CCc2nc(-c3ccc(Cl)cc3)no2)cc1
- EC50: > 95.1 µM (inactive)

SMILES: CCN(C(=O)c1ccc(C(C)(C)C)cc1)c1nnc(Cn2nnc3ccccc32)s1
- EC50: 8.78 µM

SMILES: c1ccc2c(c1)CCN(c1ncnc3c1[nH]c1ccccc13)C2
- EC50: 5.88 µM

SMILES: Nc1c(C(=O)NC2CCCC2)sc2nc(-c3cccs3)ccc12
- EC50: 23.1 µM (inactive)

SMILES: Cc1nnc2ccc(Oc3ccc(-c4ccccc4)cc3)nn12
- EC50: > 30 µM (inactive)

SMILES: O=C(Nc1cccc(C(F)(F)F)c1)N1CCC(c2nc(-c3ccc(F)cc3)no2)CC1
- EC50: 14.4 µM (inactive)

SMILES: CCOc1cc(C2NCc3ccccc3-n3cccc32)ccc1O (stereo not drawn)
- EC50: > 95.1 µM (inactive)

SMILES: CCOC(=O)N1CCC(NC(=O)C2CCCN(Cc3nc(-c4cccc(Cl)c4)oc3C)C2)CC1 (stereo not drawn)
- EC50: > 95.1 µM (inactive)

SMILES: CCN(CC)C(=O)Oc1ccc2c(=O)c(-c3ccc(OC)cc3)coc2c1
- EC50: > 95.1 µM (inactive)

SMILES: O=C(Nc1ccc(C(F)(F)F)cc1)C1CCCN1S(=O)(=O)c1cccc2cccnc12 (stereo not drawn)
- EC50: > 30 µM (inactive)

SMILES: Cc1ccccc1-c1nnc(SCc2ccccc2F)o1
- EC50: > 95.1 µM (inactive)

SMILES: O=C(CCN1CCc2ccccc2CC1)c1ccc2c(c1)OCCO2
- EC50: 4.84 µM

SMILES: CC(C)(C)SCCNS(=O)(=O)c1ccccc1
- EC50: > 95.1 µM (inactive)

SMILES: COc1ccc(CNC(=O)c2cc3c(C)nc4ccccc4c3o2)c(OC)c1
- EC50: > 95.1 µM (inactive)

SMILES: O=C(CCc1nc(-c2ccccc2F)no1)Nc1ccc(Oc2ccccc2)cc1
- EC50: 6.94 µM

SMILES: COc1cc(C#CC#CCN2CCCCC2)ccc1O
- EC50: 63.9 µM (inactive)

SMILES: Cc1cccc(OCCCCc2c(C)n[nH]c2C)c1
- EC50: > 30 µM (inactive)

SMILES: CN(CC1CCCO1)S(=O)(=O)c1ccc(C(=O)Nc2nc(-c3ccccn3)cs2)cc1 (stereo not drawn)
- EC50: > 30 µM (inactive)

SMILES: CN(Cc1cccs1)c1ncnc2sccc12
- EC50: > 30 µM (inactive)

SMILES: Cc1ccc(OCc2nc(-c3ccccc3)no2)c(C)c1
- EC50: > 95.1 µM (inactive)

SMILES: CCCOC(=O)c1[nH]c2c(c1C)C(=O)CC(c1cc(OC)c(OC)c(OC)c1)C2 (stereo not drawn)
- EC50: 35.5 µM (inactive)

SMILES: N/C(=N\c1nc2c(c(=O)[nH]1)CCCC2)Nc1ccccc1
- EC50: > 95.1 µM (inactive)

SMILES: COc1ccc(-c2noc(-c3cccc(OC)c3OC)n2)cc1OC
- EC50: > 95.1 µM (inactive)

SMILES: Cc1cc(C(=O)N2CCN(C(c3ccccc3)c3ccccc3)CC2)no1
- EC50: > 95.1 µM (inactive)

SMILES: CCN(CC)S(=O)(=O)c1cc(C(=O)Nc2ccncc2)ccc1Cl
- EC50: > 95.1 µM (inactive)

SMILES: COc1ccccc1OCc1nc(C#N)c(N2CC(C)CC(C)C2)o1 (stereo not drawn)
- EC50: > 95.1 µM (inactive)

SMILES: N#Cc1nc(COc2ccc(Cl)cc2Cl)oc1N1CCN(c2ccccc2)CC1
- EC50: > 95.1 µM (inactive)
